pIC50: −log10 of the molar value. Where two headings read alike, the source gives them in different places.

IC50 data for seven molecules are collected here from patent US12404295B2, “(Hetero)aryl-methyl-thio-beta-D-galactopyranoside derivatives” (Idorsia Pharmaceuticals Ltd, priority 2019, dated 2025).

The target in one test is human Gal-1 (hGal-1) (Homo sapiens (Human), UniProt P09382). In words: competitive binding assay: biotinylated hGal-1 binding to microplate-adsorbed asialofetuin (ASF). Conditions: Table 15; read-out: IC50 (Galectin-1 inhibition). On the procedure:
Inhibition data of the epimers R and S of selected Examples are also listed.
Evaluation of Compound Inhibitory Activity (IC50)
The inhibitory activity of compounds is determined in competitive binding assays. This spectrophotometric assay measures the binding of biotinylated human Gal-3 (hGal-3) or human Gal-1 (hGal-1), respectively, to a microplate-adsorbed glycoprotein, asialofetuin (ASF) (Proc Natl Acad Sci USA. 2013 Mar. 26; 110(13):5052-7.).
Briefly, compounds are serially diluted in DMSO (working dilutions). ASF-coated 384 well plates are supplemented with 22.8 μL/well of biotinylated hGal-3 or hGal-1 in assay buffer (i.e. 300-1000 ng/mL biotinylated hGal-3 or hGal-1) to which 1.2 μL of compound working dilutions are added and mixed.
Plates are incubated for 3 hours at 4° C., then washed with cold assay buffer (3×50 uL), incubated for 1 hour with 25 μL/well of a streptavidin-peroxidase solution (diluted in assay buffer to 80 ng/mL) at 4° C., followed by further washing steps with assay buffer (3×50 uL). Finally, 25 μL/well of ABTS substrate is added.
The calculated IC50 values may fluctuate depending on the daily assay performance. Fluctuations of this kind are known to those skilled in the art. IC50 values from several measurements are given as mean values.

Another test has as its target human Gal-3 (hGal-3) (Homo sapiens (Human), UniProt P17931). Kind of test: competitive binding assay: biotinylated hGal-3 binding to microplate-adsorbed asialofetuin (ASF). A digest of the protocol: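 3 h, 4 °C binding step; cold buffer wash; streptavidin-HRP 80 ng/mL, 1 h, 4 °C; ABTS colorimetric read-out. Compounds diluted serially in DMSO. IC50 reported as mean of repeat runs.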

[1] abbreviates: Table 10, 2-OMe-Gal inhibitors, read-out: IC50 (Gal-3 inhibition).
The mark [2] stands for this setting: Table 5, read-out: IC50 (Gal-3 inhibition).

Chain of human Gal-3 (hGal-3) (P17931 whole entry): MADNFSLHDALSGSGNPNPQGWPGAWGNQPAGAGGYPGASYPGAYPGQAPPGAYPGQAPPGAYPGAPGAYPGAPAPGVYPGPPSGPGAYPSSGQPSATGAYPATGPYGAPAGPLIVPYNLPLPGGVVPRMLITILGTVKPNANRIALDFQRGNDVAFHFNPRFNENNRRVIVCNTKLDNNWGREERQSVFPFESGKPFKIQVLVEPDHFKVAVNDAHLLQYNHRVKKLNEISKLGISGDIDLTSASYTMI
Chain of human Gal-1 (hGal-1) (P09382 whole entry): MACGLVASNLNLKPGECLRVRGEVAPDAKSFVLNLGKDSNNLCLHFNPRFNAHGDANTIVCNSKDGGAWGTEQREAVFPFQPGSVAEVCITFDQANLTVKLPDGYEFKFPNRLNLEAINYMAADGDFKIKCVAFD

Regarding `CCn1ncc(Cl)c1[C@@H](S[C@@H]1O[C@H](CO)[C@H](O)[C@H](n2cc(-c3cc(F)c(F)c(F)c3)nn2)[C@H]1OC)C1(O)CCC(F)(F)CC1` [Example 2.44.139R.I., (2R,3R,4S,5R,6S)-6-(((R)-(4-Chloro-1-ethyl-1H-pyrazol-5-yl)(4,4-difluoro-1-hydroxycyclohexyl)methyl)thio)-2-(hydroxymethyl)-5-methoxy-4-(4-(3,4,5-trifluorophenyl)-1H-1,2,3-triazol-1-yl)tetrahydro-2H-pyran-3-ol], the figures for the pIC50 at human Gal-1 (hGal-1) and on human Gal-3 (hGal-3) (setting [1]) were 6.27 and 6.49, respectively.

For “(2S,3R,4S,5R,6R)-2-(((S)-(4-Hydroxy-2,2,6,6-tetramethyltetrahydro-2H-pyran-4-yl)(2-(trifluoromethyl)phenyl)methyl)thio)-6-(hydroxymethyl)-4-(4-(3,4,5-trifluorophenyl)-1H-1,2,3-triazol-1-yl)tetrahydro-2H-pyran-3,5-diol [Example 2.42.102S.]”, the pIC50 on human Gal-1 (hGal-1) is under 4.00; at human Gal-3 (hGal-3) (setting [2]) it was 5.11.

Consider “(2S,3R,4S,5R,6R)-2-(((S)-((S)-4-Hydroxy-2,2-dimethyltetrahydro-2H-pyran-4-yl)(o-tolyl)methyl)thio)-6-(hydroxymethyl)-4-(4-(3,4,5-trifluorophenyl)-1H-1,2,3-triazol-1-yl)tetrahydro-2H-pyran-3,5-diol [Example 2.43.112SS.]”, for which the pIC50 at human Gal-1 (hGal-1) was 4.71; at human Gal-3 (hGal-3) (setting [2]), 5.14.

In the case of `CO[C@@H]1[C@@H](n2cc(-c3ccc(Br)c(F)c3)nn2)[C@@H](O)[C@@H](CO)O[C@H]1SC(c1ncccc1C)C1(O)CCC(F)(F)CC1` (stereo partly drawn) [Example 12.44.126.I., (2R,3R,4S,5R,6S)-4-(4-(4-Bromo-3-fluorophenyl)-1H-1,2,3-triazol-1-yl)-6-(((4,4-difluoro-1-hydroxycyclohexyl)(3-methylpyridin-2-yl)methyl)thio)-2-(hydroxymethyl)-5-methoxytetrahydro-2H-pyran-3-ol], the pIC50 was 5.49 on human Gal-1 (hGal-1) and 6.72 at human Gal-3 (hGal-3) (Table 14, read-out: IC50 (Gal-3 inhibition)).

With `CO[C@@H]1[C@@H](n2cc(-c3cc(F)c(F)c(F)c3)nn2)[C@@H](O)[C@@H](CO)O[C@H]1S[C@@H](c1nccc(Cl)c1Cl)C1(O)CCC(F)(F)CC1` [Example 2.44.143S.I., (2R,3R,4S,5R,6S)-6-(((S)-(3,4-Dichloropyridin-2-yl)(4,4-difluoro-1-hydroxycyclohexyl)methyl)thio)-2-(hydroxymethyl)-5-methoxy-4-(4-(3,4,5-trifluorophenyl)-1H-1,2,3-triazol-1-yl)tetrahydro-2H-pyran-3-ol], the negative logarithm of the IC50 (pIC50) at human Gal-1 (hGal-1) was 5.01; on human Gal-3 (hGal-3) (Table 11, read-out: IC50 (Gal-3 inhibition)) it was 5.00.

Take `Cc1conc1C(S[C@@H]1O[C@H](CO)[C@H](O)[C@H](n2cc(-c3cc(F)c(F)c(F)c3)nn2)[C@H]1O)C1(O)CCS(=O)(=O)CC1` (stereo partly drawn) [Example 2.66.120., 4-((((2S,3R,4S,5R,6R)-3,5-Dihydroxy-6-(hydroxymethyl)-4-(4-(3,4,5-trifluorophenyl)-1H-1,2,3-triazol-1-yl)tetrahydro-2H-pyran-2-yl)thio)(4-methylisoxazol-3-yl)methyl)-4-hydroxytetrahydro-2H-thiopyran 1,1-dioxide]: the pIC50 on human Gal-1 (hGal-1) was 6.48; at human Gal-3 (hGal-3) (Gal-3 inhibition, binding of biotinylated hGal-3 to ASF, mean values, read-out: IC50) it was 6.85.

On to `CO[C@@H]1[C@@H](n2cc(-c3cc(F)c(F)c(F)c3)nn2)[C@@H](O)[C@@H](CO)O[C@H]1SC(c1nccnc1Cl)C1(O)CCC(F)(F)CC1` (stereo partly drawn) [Example 2.44.133.I., (2R,3R,4S,5R,6S)-6-(((3-Chloropyrazin-2-yl)(4,4-difluoro-1-hydroxycyclohexyl)methyl)thio)-2-(hydroxymethyl)-5-methoxy-4-(4-(3,4,5-trifluorophenyl)-1H-1,2,3-triazol-1-yl)tetrahydro-2H-pyran-3-ol], for which the values for the pIC50 at human Gal-1 (hGal-1) and on human Gal-3 (hGal-3) (setting [1]) were 5.91 and 6.77, respectively.
